Assay results reported in patent US20240287138A1, “CYCLIC PEPTIDES FOR INHIBITING TNF RECEPTOR 1 ACTIVITY” (Merck Sharp & Dohme LLC, priority 2023, published 2024).
Numbered stars: 1 amine (or outer) side, 2 acyl side, 3 side chain; on linkers, the order of the positions; unused ones are H or OH. Bridge positions count the residues as written; N and C are the ends. Square brackets hold non-standard residues; d marks the D form. Peptide text beside a SMILES is read from it. * marks the point of attachment. Trp(βS-Me,7-OMe) = COc1cccc2c([C@H](C)[C@H](N)C(=O)O)c[nH]c12; Phe(2-F,4-COOH) = N[C@@H](Cc1ccc(C(=O)O)cc1F)C(=O)O; Trp(7-CN) = N#Cc1cccc2c(C[C@H](N)C(=O)O)c[nH]c12; Trp(7-Cl) = N[C@@H](Cc1c[nH]c2c(Cl)cccc12)C(=O)O; Biotin = O=C1N[C@H]2[C@H](CS[C@H]2CCCCC(=O)*)N1; Phe(3-COOH) = N[C@@H](Cc1cccc(C(=O)O)c1)C(=O)O; Phe(4-CONH2) = NC(=O)c1ccc(C[C@H](N)C(=O)O)cc1; Phe(4-COOH) = N[C@@H](Cc1ccc(C(=O)O)cc1)C(=O)O; Trp(7-aza) = N[C@@H](Cc1c[nH]c2ncccc12)C(=O)O; Tyr(3-OMe) = COc1cc(C[C@H](N)C(=O)O)ccc1O; Pip(5R-OH) = O=C(O)[C@@H]1CC[C@@H](O)CN1; X1 = O=C([C@@H]1CC[C@H](N[*:1])C1)[*:2]; X42 = C[C@@H](CO)N(CC(=O)[*:2])[*:1]; Pip(4-aza) = O=C(O)[C@@H]1CNCCN1; 4Pal = N[C@@H](Cc1ccncc1)C(=O)O; NMeE = CN[C@@H](CCC(=O)O)C(=O)O; αMeS = C[C@](N)(CO)C(=O)O; Nle = CCCC[C@H](N)C(=O)O; AEA = NCCOCC(=O)O; Sar = CNCC(=O)O

target: T1, TNFα-induced NF-κB signal transduction pathway (TNFR1 signaling) in THP-1 cells (Homo sapiens, UniProt P19438); assay: THP-1 Lucia NF-κB reporter cell assay, inhibition of TNFα-induced NF-κB signaling; format: cell-based; details: THP-1 NF-κB Lucia reporter cells, 10 ng/mL TNFα, 16-18 h, secreted luciferase; read-out: THP-1 IC50
T1 sequence (P19438 30-455): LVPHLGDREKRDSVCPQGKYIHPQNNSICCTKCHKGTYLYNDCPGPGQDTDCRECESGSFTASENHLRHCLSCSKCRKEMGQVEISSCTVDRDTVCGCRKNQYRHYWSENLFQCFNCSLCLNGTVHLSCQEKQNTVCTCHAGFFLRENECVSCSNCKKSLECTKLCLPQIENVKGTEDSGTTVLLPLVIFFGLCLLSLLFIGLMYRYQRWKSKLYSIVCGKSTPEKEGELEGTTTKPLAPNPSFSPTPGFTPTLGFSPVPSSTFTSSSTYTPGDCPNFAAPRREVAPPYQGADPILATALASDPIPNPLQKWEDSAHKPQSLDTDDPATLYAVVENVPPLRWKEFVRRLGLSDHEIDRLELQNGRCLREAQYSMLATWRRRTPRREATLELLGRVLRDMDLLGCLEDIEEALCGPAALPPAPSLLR
Description: C. Procedure for THP-1 Lucia NF-κB cells
The inhibition of TNFα-induced NF-κB signal transduction pathways was evaluated in THP-1 cells. THP-1 cells harboring NF-κB-inducible Lucia™ reporter gene (InvivoGen, cat. #thp1-nfkb) designed for monitoring NF-κB signal transduction pathway was employed to assess the inhibitory effect macrocyclic peptides on TNFR1 signaling. The cells were cultured in media containing RPMI 1640, 2 mM L-glutamine, 25 mM HEPES, 10% heat-inactivated fetal bovine serum with appropriate selection antibiotics. Assays were performed in media that was devoid of selection antibiotics. For profiling, 125 nL of peptides in DMSO (10 mM) were dispensed into Falcon® 384-well Optilux white/clear flat bottom TC-treated microtest microplate (Corning, cat. #353963) using Echo® 555. […] A suspension of 1 million cells/mL was dispensed at 20 μL/well in a 384-well plate to a density of 20,000 cells/well and pre-incubated with peptides at 37° C. for 1 h. Subsequently, 5 μL of TNF containing media (recombinant human TNFα; R&D Systems USA, cat. #210-TA-005/CF) or TNF-free media (for controls) was added to the wells. The final concentration of TNFα in the assay in 10 ng/mL. After o.n. incubation at 37° C. (16-18 h), 5 μL of supernatant was aspirated and transferred to a 384-well microplate (PerkinElmer, cat. #6007680) for measurement of secreted luciferase activity with 25 μL of QUANTI-Luc™ luminescence assay reagent (InvivoGen, cat. #rep-qlc1) in each well. The luminescence was measured in EnVision® Multimode Plate Reader (PerkinElmer). Dose response curves were analyzed using a 4-parameter logistic model to calculate IC50 values, reported in Table 2, using TIBCO® Spotfire® software employing appropriate Minimum and Maximum controls.

Row | Structure (SMILES) | IC50
1 | CN1CC(=O)N[C@@H](CC(N)=O)C(=O)N[C@@H](Cc2ccc(O)cc2)C(=O)N[C@@H](Cc2c[nH]c3ccccc23)C(=O)N[C@@H](CO)C(=O)N[C@@H](Cc2ccc(O)cc2)C(=O)N[C@@H](Cc2ccc(O)cc2)C(=O)N(C)CC(=O)N[C@@H](Cc2c[nH]c3ccccc23)C(=O)N[C@H](C(=O)NCC(=O)NCCOCC(=O)N[C@@H](CCCCNC(=O)CCCC[C@@H]2SC[C@@H]3NC(=O)N[C@@H]32)C(N)=O)CSCC(=O)N[C@@H](Cc2ccccc2)C(=O)N[C@@H](Cc2ccc(O)cc2)C(=O)N[C@@H](CO)C(=O)N[C@@H](Cc2c[nH]c3ccccc23)C1=O [SEQ ID NO. 1] ({CH2CO}-FYSW[Sar]NYWSYY[Sar]WCG[AEA]K(Biotin)-NH2; thioether N-14) | 227 nM
2 | CCCC[C@@H]1NC(=O)[C@@H]2CC[C@@H](C2)NC(=O)[C@H]([C@@H](C)c2c[nH]c3c(OC)cccc23)NC(=O)CN(C)C(=O)[C@H](Cc2ccc(O)cc2)NC(=O)[C@H](Cc2ccc(C(=O)O)cc2F)NC(=O)[C@](C)(CO)NC(=O)[C@H](Cc2c[nH]c3c(Cl)cccc23)NC(=O)[C@H](Cc2ccncc2)NC(=O)[C@H](CC(N)=O)NC(=O)[C@H](CCC(=O)O)N(C)C(=O)[C@H](Cc2c[nH]c3ccccc23)NC(=O)[C@@H]2CNCCN2C(=O)[C@H](Cc2ccncc2)NC1=O [SEQ ID NO. 7] (cyclo([4Pal][Trp(7-Cl)][αMeS][Phe(2-F,4-COOH)]Y[Sar][Trp(βS-Me,7-OMe)][X1][Nle][4Pal][Pip(4-aza)]W[NMeE]N)) | 1.6 nM
3 | CCCC[C@@H]1NC(=O)[C@@H]2CC[C@@H](C2)NC(=O)[C@H]([C@@H](C)c2c[nH]c3c(OC)cccc23)NC(=O)CN(C)C(=O)[C@H](Cc2ccc(C(N)=O)cc2)NC(=O)[C@H](Cc2ccc(C(N)=O)cc2)NC(=O)[C@](C)(CO)NC(=O)[C@H](Cc2c[nH]c3c(C#N)cccc23)NC(=O)[C@H](Cc2ccc(C(=O)O)cc2)NC(=O)[C@H](CC(N)=O)NC(=O)CN([C@@H](C)CO)C(=O)[C@H](Cc2c[nH]c3ncccc23)NC(=O)[C@@H]2CC[C@@H](O)CN2C(=O)[C@H](Cc2ccncc2)NC1=O [SEQ ID NO. 23] (cyclo([4Pal][Pip(5R-OH)][Trp(7-aza)][X42]N[Phe(4-COOH)][Trp(7-CN)][αMeS][Phe(4-CONH2)][Phe(4-CONH2)][Sar][Trp(βS-Me,7-OMe)][X1][Nle])) | 0.8 nM
4 | CCCC[C@@H]1NC(=O)[C@@H]2CC[C@@H](C2)NC(=O)[C@H]([C@@H](C)c2c[nH]c3c(OC)cccc23)NC(=O)CN(C)C(=O)[C@H](Cc2ccc(O)c(OC)c2)NC(=O)[C@H](Cc2ccc(C(=O)O)cc2)NC(=O)[C@](C)(CO)NC(=O)[C@H](Cc2c[nH]c3c(Cl)cccc23)NC(=O)[C@H](Cc2ccncc2)NC(=O)[C@H](CC(N)=O)NC(=O)[C@H](CCC(=O)O)N(C)C(=O)[C@H](Cc2c[nH]c3ccccc23)NC(=O)[C@@H]2CNCCN2C(=O)[C@H](Cc2ccncc2)NC1=O [SEQ ID NO. 24] (cyclo([4Pal][Trp(7-Cl)][αMeS][Phe(4-COOH)][Tyr(3-OMe)][Sar][Trp(βS-Me,7-OMe)][X1][Nle][4Pal][Pip(4-aza)]W[NMeE]N)) | 0.7 nM
5 | CCCC[C@@H]1NC(=O)[C@@H]2CC[C@@H](C2)NC(=O)[C@H]([C@@H](C)c2c[nH]c3c(OC)cccc23)NC(=O)CN(C)C(=O)[C@H](Cc2ccc(O)cc2)NC(=O)[C@H](Cc2cccc(C(=O)O)c2)NC(=O)[C@](C)(CO)NC(=O)[C@H](Cc2c[nH]c3c(Cl)cccc23)NC(=O)[C@H](Cc2ccncc2)NC(=O)[C@H](CC(N)=O)NC(=O)[C@H](CCC(=O)O)N(C)C(=O)[C@H](Cc2c[nH]c3ccccc23)NC(=O)[C@@H]2CNCCN2C(=O)[C@H](Cc2ccncc2)NC1=O [SEQ ID NO. 28] (cyclo([4Pal][Trp(7-Cl)][αMeS][Phe(3-COOH)]Y[Sar][Trp(βS-Me,7-OMe)][X1][Nle][4Pal][Pip(4-aza)]W[NMeE]N)) | 1.6 nM
